# Values of other authors in US10159658B2, “Compositions comprising statins, biguanides and further agents for reducing cardiometabolic risk” (ELCELYX THERAPEUTICS, INC., priority 2011, dated 2018).
# System: atherosclerotic plaque volume
# Settings: diabetics; PERISCOPE, Nissen et al. JAMA 2008
smiles,measurement,value
CCC1=C(C)CN(C(=O)NCCc2ccc(S(=O)(=O)NC(=O)N[C@H]3CC[C@H](C)CC3)cc2)C1=O [Glimepiride],change of atherosclerotic plaque volume over time,0.73%
